In US20090181898A1, “ABUSE-RESISTANT A[…]” (SHIRE LLC, priority 2002, published 2009):
Values joined by “and” are separate entries in the source; they are usually repeats but may differ in a detail not shown here. Equal values may be shown once.

Legend:
[1] = Clinical pharmacokinetics, 25 and 75 mg, compared to Adderall XR and Dexedrine Spansule; settings: for Tmax: L-lysine-d-amphetamine intact conjugate Tmax
[2] = Oral dose-escalation abuse liability study (pharmacokinetics) in adults with stimulant abuse history
[3] = human, in vivo, po, 75 mg, L-lysine-d-amphetamine intact conjugate concentration, oral 75 mg L-lysine-d-amphetamine, individual subjects
[4] = human, in vivo, po, 75 mg, L-lysine-d-amphetamine intact conjugate concentration, oral 75 mg L-lysine-d-amphetamine, mean
[5] = human, oral 25 mg L-lysine-d-amphetamine, individual subjects
[6] = human, oral 75 mg L-lysine-d-amphetamine, individual subjects

## CC(Cc1ccccc1)NC(=O)C(N)CCCCN [L-lysine-d-amphetamine, 2,6-diaminohexanoic acid-(1-methyl-2-phenylethyl)-amide]
[1]; human, in vivo, po, 75 mg, L-lysine-d-amphetamine intact conjugate Cmax, oral 75 mg L-lysine-d-amphetamine, mean
  Cmax: 53.6 ng/mL
[1]; human, in vivo, po, 75 mg, L-lysine-d-amphetamine intact conjugate T1/2, human, oral 75 mg L-lysine-d-amphetamine, mean
  half-life: 32 min
[1]; human, in vivo, po, 75 mg, oral 75 mg L-lysine-d-amphetamine, individual subjects
  Tmax: 1 h
[1]; human, in vivo, po, 75 mg, oral 75 mg L-lysine-d-amphetamine, mean
  Tmax: 1.05 h
[1]; [3]
  concentration at 0 h: 0 ng/mL
  concentration at 16 h: 0 ng/mL
  concentration at 24 h: 0 ng/mL
  concentration at 48 h: 0 ng/mL
  concentration at 72 h: 0 ng/mL
[1]; [4]
  concentration at 0 h: 0 ng/mL
  concentration at 16 h: 0 ng/mL
  concentration at 24 h: 0 ng/mL
  concentration at 48 h: 0 ng/mL
  concentration at 72 h: 0 ng/mL
[1]; human, in vivo, po, 75 mg, L-lysine-d-amphetamine intact conjugate concentration, oral 75 mg L-lysine-d-amphetamine, 0.5 h, mean
  concentration at 0.5 h: 20.5 ng/mL
[1]; human, in vivo, po, 75 mg, L-lysine-d-amphetamine intact conjugate concentration, oral 75 mg L-lysine-d-amphetamine, 1 h, mean
  concentration at 1 h: 53 ng/mL
[1]; human, in vivo, po, 75 mg, L-lysine-d-amphetamine intact conjugate concentration, oral 75 mg L-lysine-d-amphetamine, 2 h, mean
  concentration at 2 h: 9.1 ng/mL
[1]; human, in vivo, po, 75 mg, L-lysine-d-amphetamine intact conjugate concentration, oral 75 mg L-lysine-d-amphetamine, 3 h, mean
  concentration at 3 h: 2.6 ng/mL
[1]; human, in vivo, po, 75 mg, L-lysine-d-amphetamine intact conjugate concentration, oral 75 mg L-lysine-d-amphetamine, 4 h, mean
  concentration at 4 h: 0.8 ng/mL
[1]; human, in vivo, po, 75 mg, L-lysine-d-amphetamine intact conjugate concentration, oral 75 mg L-lysine-d-amphetamine, 5 h, individual subjects
  concentration at 5 h: 0 ng/mL
[1]; human, in vivo, po, 75 mg, L-lysine-d-amphetamine intact conjugate concentration, oral 75 mg L-lysine-d-amphetamine, 5 h, mean
  concentration at 5 h: 0 ng/mL
[1]; human, in vivo, po, 75 mg, L-lysine-d-amphetamine intact conjugate concentration, oral 75 mg L-lysine-d-amphetamine, 6 h, individual subjects
  concentration at 6 h: 0 ng/mL
[1]; human, in vivo, po, 75 mg, L-lysine-d-amphetamine intact conjugate concentration, oral 75 mg L-lysine-d-amphetamine, 6 h, mean
  concentration at 6 h: 0 ng/mL
[1]; human, in vivo, po, 75 mg, L-lysine-d-amphetamine intact conjugate concentration, oral 75 mg L-lysine-d-amphetamine, 7 h, individual subjects
  concentration at 7 h: 0 ng/mL
[1]; human, in vivo, po, 75 mg, L-lysine-d-amphetamine intact conjugate concentration, oral 75 mg L-lysine-d-amphetamine, 7 h, mean
  concentration at 7 h: 0 ng/mL
[1]; human, in vivo, po, 75 mg, L-lysine-d-amphetamine intact conjugate concentration, oral 75 mg L-lysine-d-amphetamine, 8 h, individual subjects
  concentration at 8 h: 0 ng/mL
[1]; human, in vivo, po, 75 mg, L-lysine-d-amphetamine intact conjugate concentration, oral 75 mg L-lysine-d-amphetamine, 8 h, mean
  concentration at 8 h: 0 ng/mL
[1]; human, in vivo, po, 75 mg, L-lysine-d-amphetamine intact conjugate concentration, oral 75 mg L-lysine-d-amphetamine, 10 h, individual subjects
  concentration at 10 h: 0 ng/mL
[1]; human, in vivo, po, 75 mg, L-lysine-d-amphetamine intact conjugate concentration, oral 75 mg L-lysine-d-amphetamine, 10 h, mean
  concentration at 10 h: 0 ng/mL
[1]; human, in vivo, po, 75 mg, L-lysine-d-amphetamine intact conjugate concentration, oral 75 mg L-lysine-d-amphetamine, 12 h, individual subjects
  concentration at 12 h: 0 ng/mL
[1]; human, in vivo, po, 75 mg, L-lysine-d-amphetamine intact conjugate concentration, oral 75 mg L-lysine-d-amphetamine, 12 h, mean
  concentration at 12 h: 0 ng/mL
[1]; human, oral 25 mg L-lysine-d-amphetamine, 1 h, individual subjects
  L-lysine-d-amphetamine intact conjugate concentration: 9.2 ng/mL and 10.9 ng/mL and 11.2 ng/mL and 15.2 ng/mL and 12.5 ng/mL and 9.1 ng/mL and 2.7 ng/mL and 20.1 ng/mL and 10.5 ng/mL and 10.8 ng/mL
[1]; human, oral 25 mg L-lysine-d-amphetamine, 2 h, individual subjects
  L-lysine-d-amphetamine intact conjugate concentration: 2.1 ng/mL and 3.1 ng/mL and 1.4 ng/mL and 2.5 ng/mL and 2.9 ng/mL and 1.9 ng/mL and 4.0 ng/mL and 2.3 ng/mL and 0 ng/mL and 1.7 ng/mL
[1]; human, oral 25 mg L-lysine-d-amphetamine, 3 h, individual subjects
  L-lysine-d-amphetamine intact conjugate concentration: 0 ng/mL
[1]; human, oral 25 mg L-lysine-d-amphetamine, 4 h, individual subjects
  L-lysine-d-amphetamine intact conjugate concentration: 0 ng/mL
[1]; human, oral 25 mg L-lysine-d-amphetamine, 5 h, individual subjects
  L-lysine-d-amphetamine intact conjugate concentration: 0 ng/mL
[1]; human, oral 25 mg L-lysine-d-amphetamine, 6 h, individual subjects
  L-lysine-d-amphetamine intact conjugate concentration: 0 ng/mL
[1]; human, oral 25 mg L-lysine-d-amphetamine, 7 h, individual subjects
  L-lysine-d-amphetamine intact conjugate concentration: 0 ng/mL
[1]; human, oral 25 mg L-lysine-d-amphetamine, 8 h, individual subjects
  L-lysine-d-amphetamine intact conjugate concentration: 0 ng/mL
[1]; human, oral 25 mg L-lysine-d-amphetamine, 10 h, individual subjects
  L-lysine-d-amphetamine intact conjugate concentration: 0 ng/mL
[1]; human, oral 25 mg L-lysine-d-amphetamine, 12 h, individual subjects
  L-lysine-d-amphetamine intact conjugate concentration: 0 ng/mL
[1]; [5]
  L-lysine-d-amphetamine intact conjugate AUCinf: 10.62 ng·h/mL and 12.83 ng·h/mL and 11.64 ng·h/mL and 17.66 ng·h/mL and 12.65 ng·h/mL and 9.759 ng·h/mL and 19.56 ng·h/mL and 13.3 ng·h/mL
  L-lysine-d-amphetamine intact conjugate AUClast: 9.18 ng·h/mL and 10.41 ng·h/mL and 10.95 ng·h/mL and 16.31 ng·h/mL and 10.68 ng·h/mL and 8.583 ng·h/mL and 5.439 ng·h/mL and 18.51 ng·h/mL and 10.77 ng·h/mL and 12.35 ng·h/mL
  L-lysine-d-amphetamine intact conjugate Cmax: 9.18 ng/mL and 10.9 ng/mL and 11.2 ng/mL and 15.2 ng/mL and 12.5 ng/mL and 9.05 ng/mL and 6.18 ng/mL and 20.1 ng/mL and 10.5 ng/mL and 10.8 ng/mL
  L-lysine-d-amphetamine intact conjugate Tmax: 1.5 h
[1]; [6]
  L-lysine-d-amphetamine intact conjugate AUCinf: 52.5 ng·h/mL and 87.0 ng·h/mL and 45.0 ng·h/mL and 33.0 ng·h/mL and 44.9 ng·h/mL and 52.3 ng·h/mL and 34.2 ng·h/mL and 31.4 ng·h/mL and 102.9 ng·h/mL and 111.7 ng·h/mL
  L-lysine-d-amphetamine intact conjugate AUClast: 51.2 ng·h/mL and 86.1 ng·h/mL and 44.2 ng·h/mL and 32.0 ng·h/mL and 43.7 ng·h/mL and 50.4 ng·h/mL and 30.9 ng·h/mL and 29.8 ng·h/mL and 102.1 ng·h/mL and 110.8 ng·h/mL
  L-lysine-d-amphetamine intact conjugate Cmax: 48.0 ng/mL and 80.1 ng/mL and 40.5 ng/mL and 29.0 ng/mL and 41.5 ng/mL and 26.5 ng/mL and 30.8 ng/mL and 23.4 ng/mL and 127.0 ng/mL and 88.9 ng/mL
  L-lysine-d-amphetamine intact conjugate Tmax: 1.5 h
[1]; humans, oral, 25 mg
  Intact conjugate as percent of total drug absorption (AUCinf-molar basis): 1.6%
[1]; humans, oral, 75 mg
  Bioavailability over twelve hours vs Adderall XR® (d-amphetamine plus l-amphetamine levels): approximately equivalent
  Bioavailability over twelve hours vs Dexedrine Spansule®: over twenty percent higher
  Intact conjugate as percent of total drug absorption (AUCinf-molar basis): 2.0%
[1]; humans, oral, 75 mg vs Adderall XR® 35 mg and Dexedrine Spansule® 30 mg
  Bioavailability (AUCinf) of d-amphetamine vs both extended release amphetamine products: approximately equivalent
[1]; humans, oral, 25 and 75 mg
  Time of peak levels of intact conjugate: about one hour
[1]; humans, oral, even at the highest dose
  Elimination of intact conjugate: no detectable concentrations present by five hours
[2]; adults with stimulant abuse, oral, 30-150 mg
  Adverse reactions: mild in severity
[2]; human, in vivo, po
  half-life: 26.4 to 45.6 min
